Measurements: patent publication US4061861A, “7-[α-(2,3-DIHYDRO-2-OXO-1H-benzimidazol-1-ylcarbonyl-amino) arylacetamido]cephalosporins” (Eli Lilly and Company, priority 1976, dated 1977)
Converted amounts (≈) assume the structure as drawn.

How the values were obtained:
Format in all cases: cell-based
Shigella sp. = experiment: MIC by gradient plate in vitro method, Shigella sp.; conditions: read-out: Minimum Inhibitory Concentration
From the text: (§1) The antibiotic activity of the cephalosporin compounds of this invention is illustrated by the data provided in the following Table of representative compounds. The values in the Table are the minimum inhibitory concentrations (MIC) for the test compounds against the indicated microorganisms. The MIC values were obtained using the gradient plate in vitro method for determining antibiotic activity.

Escherichia coli = experiment: MIC by gradient plate in vitro method, Escherichia coli; conditions: read-out: Minimum Inhibitory Concentration
From the text: as §1

Klebsiella pneumoniae = experiment: MIC by gradient plate in vitro method, Klebsiella pneumoniae; conditions: read-out: Minimum Inhibitory Concentration
From the text: as §1

Salmonella heidelberg = experiment: MIC by gradient plate in vitro method, Salmonella heidelberg; conditions: Salmonella enterica, read-out: Minimum Inhibitory Concentration
From the text: as §1

X400 = experiment: MIC by gradient plate in vitro method, X400 (methicillin resistant Staphylococcus); conditions: read-out: Minimum Inhibitory Concentration
From the text: as §1
(§2) Staphylococcus. X-400 is a methicillin resistant Staphylococcus.

Aerobacter aerogenes = experiment: MIC by gradient plate in vitro method, Aerobacter aerogenes; conditions: Klebsiella aerogenes, read-out: Minimum Inhibitory Concentration
From the text: as §1

V32 = experiment: MIC by gradient plate in vitro method, V32 (penicillin resistant Staphylococcus); conditions: read-out: Minimum Inhibitory Concentration
From the text: as §1
(§3) ^1 Test organisms V41, V32, and V84 are penicillin resistant
as §2

Serratia marcescens = experiment: MIC by gradient plate in vitro method, Serratia marcescens; conditions: read-out: Minimum Inhibitory Concentration
From the text: as §1

Pseudomonas aeruginosa = experiment: MIC by gradient plate in vitro method, Pseudomonas aeruginosa; conditions: read-out: Minimum Inhibitory Concentration
From the text: as §1

V84 = experiment: MIC by gradient plate in vitro method, V84 (penicillin resistant Staphylococcus); conditions: read-out: Minimum Inhibitory Concentration
From the text: as §1, §3, §2

V41 = experiment: MIC by gradient plate in vitro method, V41 (penicillin resistant Staphylococcus); conditions: read-out: Minimum Inhibitory Concentration
From the text: as §1, §3, §2

Compound	MIC (Shigella sp.) [µg/mL]	MIC (Escherichia coli) [µg/mL]	MIC (Klebsiella pneumoniae) [µg/mL]	MIC (Salmonella heidelberg) [µg/mL]	MIC (X400) [µg/mL]	MIC (Aerobacter aerogenes) [µg/mL]	MIC (V32) [µg/mL]	MIC (Serratia marcescens) [µg/mL]	MIC (Pseudomonas aeruginosa) [µg/mL]	MIC (V84) [µg/mL]	MIC (V41) [µg/mL]
Cn1nnnc1SCC1=C(C(=O)O)N2C(=O)C(NC(=O)C(NC(=O)n3c(=O)[nH]c4ccccc43)c3ccccc3)[C@H]2SC1 (stereo partly drawn) [Test Compound B, 7-[α-(2,3-Dihydro-2-oxo-1H-benzimidazol-1-ylcarbonylamino)phenylacetamido]-3-(1-methyltetrazol-5-ylthiomethyl)-3-cephem-4-carboxylic acid]	16 (≈ 25.7 µM)	9 (≈ 14.5 µM)	7 (≈ 11.3 µM)	15 (≈ 24.1 µM)	> 20	21.8 (≈ 35.1 µM)	6 (≈ 9.65 µM)	120 (≈ 193 µM)	12 (≈ 19.3 µM)	0.9 (≈ 1.45 µM)	1 (≈ 1.61 µM)
CC(=O)OCC1=C(C(=O)O)N2C(=O)C(NC(=O)C(NC(=O)n3c(=O)[nH]c4ccccc43)c3ccccc3)[C@H]2SC1 (stereo partly drawn) [Test Compound A, 7-[α-(2,3-Dihydro-2-oxo-1H-benzimidazol-1-ylcarbonylamino)phenylacetamido]-3-acetoxymethyl-3-cephem-4-carboxylic acid]	100 (≈ 177 µM)	140 (≈ 248 µM)	90 (≈ 159 µM)	120 (≈ 212 µM)	> 20	140 (≈ 248 µM)	11 (≈ 19.4 µM)	> 200	16 (≈ 28.3 µM)	8 (≈ 14.1 µM)	8 (≈ 14.1 µM)
CC(=O)OCC1=C(C(=O)O)N2C(=O)C(NC(=O)C(NC(=O)n3c(=O)n(C)c4ccccc43)c3ccccc3)[C@H]2SC1 (stereo partly drawn) [Test Compound C, 7-[α-(3-Methyl-2,3-dihydro-2-oxo-1H-benzimidazol-1-ylcarbonylamino)phenylacetamido]-3-acetoxymethyl-3-cephem-4-carboxylic acid]	55 (≈ 94.9 µM)	72.5 (≈ 125 µM)	25 (≈ 43.1 µM)	80 (≈ 138 µM)	> 20	120 (≈ 207 µM)	6 (≈ 10.4 µM)	> 200	8.5 (≈ 14.7 µM)	0.9 (≈ 1.55 µM)	5 (≈ 8.63 µM)
Cn1nnnc1SCC1=C(C(=O)O)N2C(=O)C(NC(=O)C(NC(=O)n3c(=O)n(C)c4ccccc43)c3ccccc3)[C@H]2SC1 (stereo partly drawn) [Test Compound D, 7-[α-(3-Methyl-2,3-dihydro-2-oxo-1H-benzimidazol-1-ylcarbonylamino)phenylacetamido]-3-(1-methyltetrazol-5-ylthiomethyl)-3-cephem-4-carboxylic acid]	15 (≈ 23.6 µM)	14 (≈ 22 µM)	19 (≈ 29.9 µM)	18 (≈ 28.3 µM)	16 (≈ 25.2 µM)	30 (≈ 47.2 µM)	3 (≈ 4.72 µM)	> 200	8 (≈ 12.6 µM)	0.6 (≈ 0.944 µM)	3 (≈ 4.72 µM)
NC(=O)OCC1=C(C(=O)O)N2C(=O)C(NC(=O)C(NC(=O)n3c(=O)[nH]c4ccccc43)c3ccc(O)cc3)[C@H]2SC1 (stereo partly drawn) [Test Compound E, 7-[α-(2,3-dihydro-2-oxo-1H-benzimidazol-1-ylcarbonylamino)-4-hydroxyphenylacetamido]-3-carbamoyloxymethyl-3-cephem-4-carboxylic acid]	120 (≈ 206 µM)	160 (≈ 275 µM)	100 (≈ 172 µM)	120 (≈ 206 µM)	180 (≈ 309 µM)	> 200	5 (≈ 8.58 µM)	> 200	10 (≈ 17.2 µM)	0.7 (≈ 1.2 µM)	5 (≈ 8.58 µM)
